From patent US20260297081A1, “COMPOUNDS AND METHODS OF TREATING CANCERS” (Cullgen Inc., priority 2023, published 2026)

What was measured:
Assay type in all cases: cell-based
[1] = system: Calu-1 cells; assay: Anti-proliferation (viability) of NSCLC Calu-1 cells, 3 days (Table 7, FIG. 2B); conditions: Homo sapiens, 72 h; Calu-1 cells, 3 days, 10-point serial dilution; read-out: GI IC50 in Calu-1
Outline: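 Cells treated with heterobifunctional compounds in 10-point serial dilution, then viability measured; Calu-1 NSCLC cells exposed for 3 days, ER+ T47D breast cancer cells for 6 days.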

[2] = system: MCF7 cells; assay: Anti-proliferation (viability) of MCF7 cells (Table 7, FIG. 2B); conditions: Homo sapiens, MCF7, MCF7 cells, 3-6 days, 10-point serial dilution; read-out: GI IC50 in MCF-7
[3] = biological target: CDK4 (Homo sapiens, UniProt P11802+Q16531); assay: HiBiT detection of HiBiT-tagged CDK4 protein level in MCF7 cells, 16 hours (Table 8); set-up: expressed in transfected cells; host or cells: MCF7; conditions: MCF7 cells stably expressing HiBiT tagged target proteins; for activity at 0.01 µM: 10 nM, read-out: % CDK4 Relative Level (10 nM); for activity at 0.1 µM: 100 nM, read-out: % CDK4 Relative Level (100 nM)
Procedure: HiBiT detection system quantitatively measures total amounts of HiBiT-tagged proteins using a luminescent based method. MCF7 cells stably expressing HiBiT tagged target proteins were treated with heterobifunctional compounds at indicated concentrations for 16 hours, then lysed with Nano-Glo HiBiT Lytic detection reagents.

Sequence of CDK4 (P11802 whole entry): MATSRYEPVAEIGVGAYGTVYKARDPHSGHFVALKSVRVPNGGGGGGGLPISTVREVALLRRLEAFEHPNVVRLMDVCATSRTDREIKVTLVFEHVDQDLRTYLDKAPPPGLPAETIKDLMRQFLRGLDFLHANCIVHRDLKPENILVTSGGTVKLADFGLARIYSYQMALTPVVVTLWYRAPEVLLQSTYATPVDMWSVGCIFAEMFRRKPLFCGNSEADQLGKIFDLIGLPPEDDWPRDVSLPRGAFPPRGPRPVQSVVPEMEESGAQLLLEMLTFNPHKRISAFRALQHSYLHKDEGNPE
Sequence of CDK4 (P24385 whole entry partner): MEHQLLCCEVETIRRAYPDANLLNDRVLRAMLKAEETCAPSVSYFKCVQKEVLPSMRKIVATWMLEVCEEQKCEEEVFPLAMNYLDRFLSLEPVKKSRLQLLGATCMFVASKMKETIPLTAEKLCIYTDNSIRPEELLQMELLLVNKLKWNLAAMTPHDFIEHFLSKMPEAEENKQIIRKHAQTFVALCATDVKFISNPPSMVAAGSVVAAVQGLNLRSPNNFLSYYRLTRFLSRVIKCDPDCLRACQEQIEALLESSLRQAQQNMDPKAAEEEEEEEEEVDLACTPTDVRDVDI
Sequence of CDK4 (Q16531 2-1140 limits assumed): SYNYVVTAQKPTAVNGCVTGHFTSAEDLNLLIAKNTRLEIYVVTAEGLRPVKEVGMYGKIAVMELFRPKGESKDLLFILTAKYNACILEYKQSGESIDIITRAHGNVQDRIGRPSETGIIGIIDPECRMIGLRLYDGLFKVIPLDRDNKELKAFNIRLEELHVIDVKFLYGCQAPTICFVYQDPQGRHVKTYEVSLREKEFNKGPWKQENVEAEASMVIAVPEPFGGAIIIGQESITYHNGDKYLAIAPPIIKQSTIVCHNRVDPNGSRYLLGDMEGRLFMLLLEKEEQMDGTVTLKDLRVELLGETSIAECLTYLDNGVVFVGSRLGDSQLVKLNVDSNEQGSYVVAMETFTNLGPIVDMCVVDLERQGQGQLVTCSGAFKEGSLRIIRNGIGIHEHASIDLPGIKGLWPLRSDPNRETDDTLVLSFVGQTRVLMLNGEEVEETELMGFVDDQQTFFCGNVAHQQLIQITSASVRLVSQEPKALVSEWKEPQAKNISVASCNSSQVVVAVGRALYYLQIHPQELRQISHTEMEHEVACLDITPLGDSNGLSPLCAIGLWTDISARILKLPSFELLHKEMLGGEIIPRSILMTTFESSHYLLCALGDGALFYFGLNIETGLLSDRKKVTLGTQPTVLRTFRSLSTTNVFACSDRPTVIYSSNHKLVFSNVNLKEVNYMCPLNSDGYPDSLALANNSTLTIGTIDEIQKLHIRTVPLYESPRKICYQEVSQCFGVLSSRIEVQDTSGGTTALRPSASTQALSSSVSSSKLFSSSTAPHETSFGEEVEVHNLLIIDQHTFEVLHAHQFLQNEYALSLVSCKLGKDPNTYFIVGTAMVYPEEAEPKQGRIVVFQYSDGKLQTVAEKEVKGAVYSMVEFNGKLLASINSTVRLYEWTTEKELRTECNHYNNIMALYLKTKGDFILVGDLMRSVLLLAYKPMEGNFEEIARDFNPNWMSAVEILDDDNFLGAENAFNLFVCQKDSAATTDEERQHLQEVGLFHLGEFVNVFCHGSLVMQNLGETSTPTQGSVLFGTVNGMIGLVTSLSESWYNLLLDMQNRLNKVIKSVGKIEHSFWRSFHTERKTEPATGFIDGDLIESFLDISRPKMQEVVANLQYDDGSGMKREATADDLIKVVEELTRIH

IC50 [1] | IC50 [2] | activity at 0.01 µM [3] | activity at 0.1 µM [3] | SMILES
≤ 10 nM | < 50 nM | > 85% | 55 to 85% | CC(=O)c1c(C)c2cnc(Nc3ccc(N4CCN(C5CCN(C(=O)[C@H]6CC[C@H](Nc7nc(NC(C)C)ccc7C(=O)Nc7cc(C)n(C)n7)CC6)C5)CC4)cn3)nc2n(C2CCCC2)c1=O (some centres unmarked) [CPD-478, 2-((4-(3-(4-(6-((6-acetyl-8-cyclopentyl-5-methyl-7-oxo-7,8-dihydropyrido[2,3-d]pyrimidin-2-yl)amino)pyridin-3-yl)piperazin-1-yl)pyrrolidine-1-carbonyl)cyclohexyl)amino)-N-(1,5-dimethyl-1H-pyrazol-3-yl)-6-(isopropylamino)nicotinamide]
≤ 10 nM | < 50 nM | > 85% | > 85% | CC(=O)c1c(C)c2cnc(Nc3ccc(N4CCN(C5CCN(C(=O)[C@H]6CC[C@H](Nc7nc(NC(C)C)ccc7C(=O)Nc7cn(C)c(C8CC8)n7)CC6)C5)CC4)cn3)nc2n(C2CCCC2)c1=O (some centres unmarked) [CPD-481, 2-((4-(3-(4-(6-((6-acetyl-8-cyclopentyl-5-methyl-7-oxo-7,8-dihydropyrido[2,3-d]pyrimidin-2-yl)amino)pyridin-3-yl)piperazin-1-yl)pyrrolidine-1-carbonyl)cyclohexyl)amino)-N-(2-cyclopropyl-1-methyl-1H-imidazol-4-yl)-6-(isopropylamino)nicotinamide]
≤ 10 nM | < 50 nM | 55 to 85% | 55 to 85% | CC(=O)c1c(C)c2cnc(Nc3ccc(CN4CCN(CC(=O)N5CCC6(CCC(Nc7nc(NC(C)C)ccc7C(=O)Nc7ccc(N(C)C)nn7)C6)C5)CC4)cn3)nc2n(C2CCCC2)c1=O (centres unmarked) [CPD-487, 2-((2-(2-(4-((6-((6-acetyl-8-cyclopentyl-5-methyl-7-oxo-7,8-dihydropyrido[2,3-d]pyrimidin-2-yl)amino)pyridin-3-yl)methyl)piperazin-1-yl)acetyl)-2-azaspiro[4.4]nonan-7-yl)amino)-N-(6-(dimethylamino)pyridazin-3-yl)-6-(isopropylamino)nicotinamide]
≤ 10 nM | < 50 nM | > 85% | > 85% | [2H]C([2H])([2H])Nc1ccc(C(=O)Nc2ccc(N(C)C)nn2)c(NC2CCN(CC(=O)N3CCN(Cc4ccc(Nc5ncc6c(C)c(C(C)=O)c(=O)n(C7CCCC7)c6n5)nc4)CC3)CC2)n1 [CPD-491]
≤ 10 nM | < 50 nM | > 85% | > 85% | CCc1ccc(C(=O)Nc2ccc(N(C)C)nn2)c(N[C@H]2CC[C@H](C(=O)N3CCC(N4CCN(c5ccc(Nc6ncc7c(C)c(C(C)=O)c(=O)n(C8CCCC8)c7n6)nc5)CC4)C3)CC2)n1 (some centres unmarked) [CPD-492, 2-((4-(3-(4-(6-((6-acetyl-8-cyclopentyl-5-methyl-7-oxo-7,8-dihydropyrido[2,3-d]pyrimidin-2-yl)amino)pyridin-3-yl)piperazin-1-yl)pyrrolidine-1-carbonyl)cyclohexyl)amino)-N-(6-(dimethylamino)pyridazin-3-yl)-6-ethylnicotinamide]
≤ 10 nM | < 50 nM | > 85% | 55 to 85% | CC(=O)c1c(C)c2cnc(Nc3ccc(N4CCN(C5CCN(C(=O)[C@H]6CC[C@H](Nc7nc(C(C)C)ccc7C(=O)Nc7ccc(N(C)C)nn7)CC6)C5)CC4)cn3)nc2n(C2CCCC2)c1=O (stereo partly drawn) [CPD-499, 2-((trans-4-(3-(4-(6-((6-acetyl-8-cyclopentyl-5-methyl-7-oxo-7,8-dihydropyrido[2,3-d]pyrimidin-2-yl)amino)pyridin-3-yl)piperazin-1-yl)pyrrolidine-1-carbonyl)cyclohexyl)amino)-N-(6-(dimethylamino)pyridazin-3-yl)-6-isopropylnicotinamide]
≤ 10 nM | < 50 nM | > 85% | > 85% | CC(=O)c1c(C)c2cnc(Nc3ccc(CN4CCN(CC(=O)NC5CCC(Nc6nc(NC(C)C)ccc6C(=O)Nc6ccc(N(C)C)nn6)C5)CC4)cn3)nc2n(C2CCCC2)c1=O (centres unmarked) [CPD-501, 2-((3-(2-(4-((6-((6-acetyl-8-cyclopentyl-5-methyl-7-oxo-7,8-dihydropyrido[2,3-d]pyrimidin-2-yl)amino)pyridin-3-yl)methyl)piperazin-1-yl)acetamido)cyclopentyl)amino)-N-(6-(dimethylamino)pyridazin-3-yl)-6-(isopropylamino)nicotinamide]
≤ 10 nM | < 50 nM | 55 to 85% | 55 to 85% | CC(=O)c1c(C)c2cnc(Nc3ccc(N4CCN(CCC(=O)NC56CC(Nc7nc(NC(C)C)ccc7C(=O)Nc7ccc(N(C)C)nn7)(C5)C6)CC4)cn3)nc2n(C2CCCC2)c1=O [CPD-503, 2-((3-(3-(4-(6-((6-acetyl-8-cyclopentyl-5-methyl-7-oxo-7,8-dihydropyrido[2,3-d]pyrimidin-2-yl)amino)pyridin-3-yl)piperazin-1-yl)propanamido)bicyclo[1.1.1]pentan-1-yl)amino)-N-(6-(dimethylamino)pyridazin-3-yl)-6-(isopropylamino)nicotinamide]
≤ 10 nM | < 50 nM | > 85% | > 85% | CC(=O)c1c(C)c2cnc(Nc3ccc(N4CCC(N(C)CC(=O)NC56CC(Nc7nc(NC(C)C)ccc7C(=O)Nc7ccc(N(C)C)nn7)(C5)C6)CC4)cn3)nc2n(C2CCCC2)c1=O [CPD-505, 2-((3-(2-((1-(6-((6-acetyl-8-cyclopentyl-5-methyl-7-oxo-7,8-dihydropyrido[2,3-d]pyrimidin-2-yl)amino)pyridin-3-yl)piperidin-4-yl)(methyl)amino)acetamido)bicyclo[1.1.1]pentan-1-yl)amino)-N-(6-(dimethylamino)pyridazin-3-yl)-6-(isopropylamino)nicotinamide]
≤ 10 nM | < 50 nM | > 85% | > 85% | CC(=O)c1c(C)c2cnc(Nc3ccc(N4CCN(CCNC(=O)C56CC(Nc7nc(NC(C)C)ccc7C(=O)Nc7ccc(N(C)C)nn7)(C5)C6)CC4)cn3)nc2n(C2CCCC2)c1=O [CPD-506, 2-((3-((2-(4-(6-((6-acetyl-8-cyclopentyl-5-methyl-7-oxo-7,8-dihydropyrido[2,3-d]pyrimidin-2-yl)amino)pyridin-3-yl)piperazin-1-yl)ethyl)carbamoyl)bicyclo[1.1.1]pentan-1-yl)amino)-N-(6-(dimethylamino)pyridazin-3-yl)-6-(isopropylamino)nicotinamide]
≤ 10 nM | < 50 nM | > 85% | > 85% | CC(=O)c1c(C)c2cnc(Nc3ccc(CN4CCN(CC(=O)N5CC6(CCC(Nc7nc(NC(C)C)ccc7C(=O)Nc7ccc(N(C)C)nn7)C6)C5)CC4)cn3)nc2n(C2CCCC2)c1=O (centres unmarked) [CPD-515, 2-((2-(2-(4-((6-((6-acetyl-8-cyclopentyl-5-methyl-7-oxo-7,8-dihydropyrido[2,3-d]pyrimidin-2-yl)amino)pyridin-3-yl)methyl)piperazin-1-yl)acetyl)-2-azaspiro[3.4]octan-6-yl)amino)-N-(6-(dimethylamino)pyridazin-3-yl)-6-(isopropylamino)nicotinamide]
≤ 10 nM | < 50 nM | > 85% | > 85% | CC(=O)c1c(C)c2cnc(Nc3ccc(N4CCN(C5CCN(C(=O)[C@H]6CC[C@H](Nc7nc(NC(C)C)ccc7C(=O)Nc7cc8n(n7)CCC8)CC6)C5)CC4)cn3)nc2n(C2CCCC2)c1=O (stereo partly drawn) [CPD-520, 2-((trans-4-(3-(4-(6-((6-acetyl-8-cyclopentyl-5-methyl-7-oxo-7,8-dihydropyrido[2,3-d]pyrimidin-2-yl)amino)pyridin-3-yl)piperazin-1-yl)pyrrolidine-1-carbonyl)cyclohexyl)amino)-N-(5,6-dihydro-4H-pyrrolo[1,2-b]pyrazol-2-yl)-6-(isopropylamino)nicotinamide]
≤ 10 nM | < 50 nM | > 85% | > 85% | CC(=O)c1c(C)c2cnc(Nc3ccc(N4CCN(CC(=O)N(C)CC56CC(Nc7nc(NC(C)C)ccc7C(=O)Nc7ccc(N(C)C)nn7)(C5)C6)CC4)cn3)nc2n(C2CCCC2)c1=O [CPD-525, 2-((3-((2-(4-(6-((6-acetyl-8-cyclopentyl-5-methyl-7-oxo-7,8-dihydropyrido[2,3-d]pyrimidin-2-yl)amino)pyridin-3-yl)piperazin-1-yl)-N-methylacetamido)methyl)bicyclo[1.1.1]pentan-1-yl)amino)-N-(6-(dimethylamino)pyridazin-3-yl)-6-(isopropylamino)nicotinamide]
≤ 10 nM | < 50 nM | > 85% | > 85% | CC(=O)c1c(C)c2cnc(Nc3ccc(N4CCC5(CCN(CC(=O)N6CC7(CC(Nc8nc(NC(C)C)ccc8C(=O)Nc8cc9n(n8)CCC9)C7)C6)C5)C4)cn3)nc2n(C2CCCC2)c1=O (centres unmarked) [CPD-529, 2-((2-(2-(7-(6-((6-acetyl-8-cyclopentyl-5-methyl-7-oxo-7,8-dihydropyrido[2,3-d]pyrimidin-2-yl)amino)pyridin-3-yl)-2,7-diazaspiro[4.4]nonan-2-yl)acetyl)-2-azaspiro[3.3]heptan-6-yl)amino)-N-(5,6-dihydro-4H-pyrrolo[1,2-b]pyrazol-2-yl)-6-(isopropylamino)nicotinamide]
